Structures are written as SMILES.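 Dose response: 5 concentrations. Exposure: 48 h. Format: 96-well plates. Endpoint: linear interpolation; highest concentration if not reached. GI50 = concentration required for 50% inhibition of growth. The concentration for full growth arrest is given as TGI.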

Test systems include HCT-15 colon; HT29 colon; OVCAR-3 ovarian; OVCAR-4 ovarian; OVCAR-5 ovarian; RXF 393 renal; U251 CNS; A498 renal; NCI-H226 lung; HS 578T breast.
What all share (test): DTP human tumour cell line panel, 48 h

The TGI is the concentration at which net growth stops. As for `CC1CCP(=O)(c2ccccc2)CC1` (stereo not drawn), the total growth inhibition concentration (TGI) in the assay on HCT-15 colon, in the assay with HT29 colon, with OVCAR-3 ovarian, with OVCAR-4 ovarian, with OVCAR-5 ovarian and with RXF 393 renal was over 100 µM in each case. In addition, in the assay with U251 CNS, the concentration for total growth inhibition (TGI) is over 100 µM.
Broadly, the GI50 is the concentration giving 50% growth inhibition. Regarding `Cc1nc2cc(Nc3nc(Nc4ccc(F)cc4)nc(N4CCN(C)CC4)n3)ccc2n1Cc1ccccc1`, the GI50 in the assay with A498 renal was 1.56 µM; in the assay on HCT-15 colon it was 1.55 µM; in the assay on HT29 colon it was 1.66 µM; with OVCAR-3 ovarian, 1.84 µM; with OVCAR-4 ovarian, 2.2 µM; with OVCAR-5 ovarian, 2 µM. Moreover, the GI50 in the assay on U251 CNS was 1.35 µM. Further, the TGI in the assay on A498 renal came to 3.19 µM; in the assay with HCT-15 colon it was 3.48 µM; in the assay with HT29 colon, 3.28 µM; in the assay on OVCAR-3 ovarian, 3.51 µM; in the assay with OVCAR-4 ovarian it was 5.87 µM; in the assay with OVCAR-5 ovarian it was 4.7 µM. In addition, the concentration for total growth inhibition (TGI) in the assay with U251 CNS is 2.64 µM.
As to `CC1(C)CC(=O)C(=[N+]=[N-])C(=O)C1`, the TGI in the assay with HCT-15 colon, with HT29 colon, in the assay on NCI-H226 lung, in the assay with OVCAR-3 ovarian, in the assay on OVCAR-4 ovarian and with OVCAR-5 ovarian was over 100 µM throughout. The same compound returned a concentration for total growth inhibition (TGI) in the assay with RXF 393 renal of over 100 µM.
Take `COc1cc(Cl)c2c3c(c(C(=O)c4ccccc4)oc13)CCC2`: the TGI in the assay on A498 renal, in the assay with HCT-15 colon, in the assay with HT29 colon, in the assay on OVCAR-3 ovarian, with OVCAR-4 ovarian and in the assay on RXF 393 renal was over 100 µM in each case. This compound also returned a total growth inhibition concentration (TGI) in the assay on U251 CNS of over 100 µM.
Take `COc1cc(NCC2COc3c(ccc(OC)c3OC)C2=O)c([N+](=O)[O-])cc1OC` (stereo not drawn): the TGI in the assay on A498 renal, in the assay on HCT-15 colon, in the assay with HS 578T breast, in the assay with HT29 colon, in the assay on NCI-H226 lung and in the assay with OVCAR-3 ovarian was over 100 µM throughout. Besides, the total growth inhibition concentration (TGI) in the assay with OVCAR-4 ovarian, in the assay on OVCAR-5 ovarian and in the assay on U251 CNS was over 100 µM in each case.
Turning to `Cc1ccc(NC(=O)C2C(=O)N(c3ccc(C)c(C)c3)C(=O)/C2=N\NC(N)=S)cc1C` (stereo not drawn), the TGI in the assay with HCT-15 colon, in the assay with HT29 colon, in the assay on NCI-H226 lung, in the assay with OVCAR-3 ovarian and in the assay on U251 CNS was over 100 µM throughout.
Take `Cn1c2ccccc2c(=O)c2c([N+](=O)[O-])ccc(NCCN)c21`: the TGI in the assay on A498 renal was found to be 31 µM; in the assay on HCT-15 colon it was 26.7 µM; in the assay on HT29 colon it was 17.3 µM; in the assay on NCI-H226 lung, 27.2 µM; in the assay with OVCAR-3 ovarian it was 27.2 µM; in the assay with OVCAR-4 ovarian it was 24.9 µM. Also, the TGI with OVCAR-5 ovarian was 26.9 µM; in the assay on RXF 393 renal it was 23.3 µM; in the assay on U251 CNS, 28.1 µM.
For `BrC1=CC=C2NCCCCCCN=C3C=CC(Br)=CC=C3NCCCCCCN=C2C=C1`, the TGI in the assay with A498 renal, with HCT-15 colon, in the assay with HT29 colon, in the assay with NCI-H226 lung, in the assay on OVCAR-3 ovarian and in the assay on OVCAR-4 ovarian was over 25.5 µM in each case. Also, the concentration for total growth inhibition (TGI) in the assay on OVCAR-5 ovarian, in the assay on RXF 393 renal and in the assay with U251 CNS was over 25.5 µM throughout.
On to `CCCCCC(O)(CCCCC)CCCCCCCCC1=C(O)c2[nH]c(=O)ccc2C(=O)C1=O`, for which the total growth inhibition concentration (TGI) in the assay with A498 renal was found to be 24.6 µM; with HCT-15 colon, 16.3 µM; in the assay on HT29 colon, 30.5 µM; in the assay on NCI-H226 lung, 28.8 µM; in the assay on OVCAR-3 ovarian, 16.2 µM; in the assay on OVCAR-4 ovarian it was 7.06 µM. Besides, the figures for the TGI in the assay with OVCAR-5 ovarian, with RXF 393 renal and with U251 CNS were 35 µM, 21.4 µM and 16.7 µM, respectively.
Consider `COC(=O)/C(=C/c1ccc(OC)cc1)NC(=O)c1ccccc1`, for which the concentration for total growth inhibition (TGI) in the assay on A498 renal, in the assay with HCT-15 colon, in the assay with HT29 colon, in the assay on NCI-H226 lung, in the assay with OVCAR-4 ovarian and in the assay on OVCAR-5 ovarian was over 100 µM in each case. Also, the TGI with RXF 393 renal and in the assay on U251 CNS was over 100 µM throughout.
Take `CCCCN(CCCC)C(=O)C(=O)C(C)C(=O)CC` (stereo not drawn): the concentration for total growth inhibition (TGI) in the assay on HCT-15 colon, with HT29 colon, in the assay on NCI-H226 lung, in the assay with OVCAR-3 ovarian, with OVCAR-4 ovarian and in the assay on OVCAR-5 ovarian was over 100 µM throughout. The same compound yielded a concentration for total growth inhibition (TGI) in the assay with U251 CNS of over 100 µM.
As to `O=[N+]([O-])[O-].O=[N+]([O-])[O-].[Au].[Au].c1ccc([P-]c2ccccc2)cc1.c1ccc([P-]c2ccccc2)cc1`, the GI50 is over 100 µM in the assay with A498 renal; 27 µM with HCT-15 colon; 71.3 µM with HT29 colon; 26.4 µM in the assay on OVCAR-3 ovarian; over 100 µM in the assay with OVCAR-5 ovarian; 36.6 µM in the assay with U251 CNS. For the same compound, the total growth inhibition concentration (TGI) is over 100 µM in the assay on A498 renal; over 100 µM with HCT-15 colon; over 100 µM in the assay with HT29 colon; 55.4 µM in the assay with OVCAR-3 ovarian; over 100 µM in the assay with OVCAR-5 ovarian; over 100 µM in the assay on U251 CNS.
Take `OCC#Cc1ccccc1C#Cc1ccc(C#Cc2ccccc2C#CCO)s1`: the GI50 with HCT-15 colon was 25.3 µM; in the assay with HS 578T breast, 22.3 µM; with OVCAR-3 ovarian it was 12.8 µM; in the assay on OVCAR-4 ovarian, 26.4 µM; with OVCAR-5 ovarian, 22.1 µM; in the assay with RXF 393 renal, 19.6 µM. For the same compound, the GI50 in the assay with U251 CNS was 20.1 µM. Also, the total growth inhibition concentration (TGI) in the assay on HCT-15 colon was 91.1 µM; with HS 578T breast, 58.1 µM; in the assay on OVCAR-3 ovarian, 25.4 µM; in the assay with OVCAR-4 ovarian, over 100 µM; in the assay with OVCAR-5 ovarian, 46.5 µM; in the assay with RXF 393 renal it was 39.6 µM. For the same compound, in the assay on U251 CNS, the TGI amounted to 42.3 µM.
In the case of `c1cc(-c2cn[nH]c2)cc(-c2cn[nH]c2)c1`, the total growth inhibition concentration (TGI) with A498 renal was 89.7 µM; in the assay on HCT-15 colon, 96.4 µM; with OVCAR-3 ovarian it was over 100 µM; with OVCAR-4 ovarian, over 100 µM; in the assay on RXF 393 renal it was 36.8 µM; with U251 CNS, over 100 µM.
As for `CC(=O)[C-](C(C)=O)c1ccccc1.CC(=O)[C-](C(C)=O)c1ccccc1.CC[O-].CC[O-].[Ti+4]`, the GI50 in the assay with HCT-15 colon, with HT29 colon, in the assay with NCI-H226 lung, with OVCAR-3 ovarian, with OVCAR-4 ovarian and in the assay on OVCAR-5 ovarian was over 100 µM in each case. Further, in the assay with U251 CNS, the GI50 is over 100 µM. Also, the TGI in the assay on HCT-15 colon, with HT29 colon, in the assay with NCI-H226 lung, in the assay with OVCAR-3 ovarian, with OVCAR-4 ovarian and in the assay on OVCAR-5 ovarian was over 100 µM each time. In the assay with U251 CNS, this compound returned a total growth inhibition concentration (TGI) of over 100 µM.
In the case of `C=CCC(N[C@H](CO)c1ccccc1)c1cn(S(=O)(=O)c2ccc(C)cc2)c2ccccc12` (stereo partly drawn), the GI50 is 23.7 µM in the assay with HCT-15 colon; 24.3 µM in the assay on HS 578T breast; 31.2 µM in the assay on HT29 colon; over 100 µM in the assay with OVCAR-3 ovarian; 73.7 µM with OVCAR-4 ovarian; over 100 µM in the assay on OVCAR-5 ovarian. Besides, in the assay on U251 CNS, the GI50 was 17.6 µM. Further, the TGI in the assay on HCT-15 colon was 60.2 µM; in the assay on HS 578T breast, 60.5 µM; in the assay with HT29 colon, over 100 µM; with OVCAR-3 ovarian, over 100 µM; in the assay on OVCAR-4 ovarian, over 100 µM; in the assay with OVCAR-5 ovarian it was over 100 µM. This compound gave a TGI in the assay with U251 CNS of 36 µM.
Consider `COc1ccc(C(=O)C(C(=O)C(=O)Nc2nccs2)c2ccc(OC)cc2)cc1` (stereo not drawn), for which the total growth inhibition concentration (TGI) in the assay with A498 renal, with HCT-15 colon, with HT29 colon, with OVCAR-3 ovarian, in the assay on OVCAR-5 ovarian and with RXF 393 renal was over 100 µM throughout. For the same compound, in the assay with U251 CNS, the TGI was over 100 µM.
`c1ccc2cc(Cn3c[n+](Cc4ccc5ccccc5c4)c4ccccc43)ccc2c1`: the GI50 with A498 renal is 1.08 µM; in the assay on OVCAR-3 ovarian, 0.927 µM; in the assay on OVCAR-4 ovarian it was 1.19 µM; with OVCAR-5 ovarian it was 1.46 µM. Besides, the total growth inhibition concentration (TGI) stood at 2.5 µM with A498 renal, 2.22 µM with OVCAR-3 ovarian, 2.61 µM in the assay with OVCAR-4 ovarian and 2.89 µM with OVCAR-5 ovarian.
For the compound `C#C[C@H](CCCC)OC(=O)N[C@H](C)c1ccccc1`, the TGI in the assay with HT29 colon is over 100 µM; in the assay on OVCAR-3 ovarian it was over 100 µM; with OVCAR-4 ovarian, over 100 µM; in the assay with OVCAR-5 ovarian, 99 µM; in the assay on RXF 393 renal it was 92.4 µM; in the assay on U251 CNS, over 100 µM.
On to `O=C(O)/C(=C\c1ccccc1Cl)S(=O)(=O)c1ccccc1`, for which the TGI with A498 renal, in the assay with HCT-15 colon, with HT29 colon, in the assay with OVCAR-4 ovarian, with OVCAR-5 ovarian and with RXF 393 renal was over 100 µM throughout. Also, the TGI in the assay on U251 CNS is over 100 µM.
In the case of `N[C@@H]1CCCC[C@@H]1N.O=C([O-])CN(CP(=O)([O-])[O-])CP(=O)([O-])[O-].[Pt+2]`, the GI50 in the assay on A498 renal, in the assay with HCT-15 colon, in the assay with HT29 colon, in the assay on NCI-H226 lung, in the assay on OVCAR-3 ovarian and with OVCAR-4 ovarian was over 100 µM each time. The GI50 with U251 CNS was over 100 µM. Further, the TGI with A498 renal, in the assay on HCT-15 colon, in the assay on HT29 colon, in the assay with NCI-H226 lung, in the assay on OVCAR-3 ovarian and with OVCAR-4 ovarian was over 100 µM in each case. This compound returned a TGI in the assay with U251 CNS of over 100 µM.
